Assay results from the kinase profiling compilation of Christmann-Franck et al. (2016).

What was measured:
Test in all cases: radiometric filter-binding kinase assay, Kinase HotSpot
Conditions in all cases: compound 0.5 µM; ATP 10 µM
[1] = biological target: RIPK2 (human) (UniProt O43353)
[2] = biological target: EPHA7 (human) (UniProt Q15375)
[3] = biological target: CSNK2A1 (human) (UniProt P68400)
[4] = biological target: ERBB2 (human) (UniProt P04626)
[5] = biological target: FGR (human) (UniProt P09769)
[6] = biological target: ROCK1 (human) (UniProt Q13464)
[7] = biological target: FYN (human) (UniProt P06241)
[8] = biological target: EPHB1 (human) (UniProt P54762)
[9] = biological target: PRKCA (human) (UniProt P17252)
[10] = biological target: IGF1R (human) (UniProt P08069)
[11] = biological target: PLK3 (human) (UniProt Q9H4B4)
PLK3 (human), sequence (Q9H4B4 whole entry, looked up): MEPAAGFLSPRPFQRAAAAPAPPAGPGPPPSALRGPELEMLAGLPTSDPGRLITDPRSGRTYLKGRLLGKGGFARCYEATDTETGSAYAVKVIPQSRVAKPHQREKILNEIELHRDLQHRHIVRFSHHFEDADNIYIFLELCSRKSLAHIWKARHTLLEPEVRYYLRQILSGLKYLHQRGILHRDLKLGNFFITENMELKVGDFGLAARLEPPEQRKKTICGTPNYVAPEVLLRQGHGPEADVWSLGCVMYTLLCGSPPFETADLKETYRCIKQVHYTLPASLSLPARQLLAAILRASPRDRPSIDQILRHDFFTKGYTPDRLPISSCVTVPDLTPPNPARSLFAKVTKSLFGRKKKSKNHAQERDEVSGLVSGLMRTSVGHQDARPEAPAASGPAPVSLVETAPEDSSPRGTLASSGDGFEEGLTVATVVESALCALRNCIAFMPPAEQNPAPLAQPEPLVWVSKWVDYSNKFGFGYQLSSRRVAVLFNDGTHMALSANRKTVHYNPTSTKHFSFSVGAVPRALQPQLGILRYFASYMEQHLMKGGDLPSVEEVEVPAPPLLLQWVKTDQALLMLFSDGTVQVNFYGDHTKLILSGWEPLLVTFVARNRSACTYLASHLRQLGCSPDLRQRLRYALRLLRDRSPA

[12] = biological target: PBK (human) (UniProt Q96KB5)
[13] = biological target: MAP4K2 (human) (UniProt Q12851)
[14] = biological target: NEK2 (human) (UniProt P51955)
[15] = biological target: MAPKAPK2 (human) (UniProt P49137)
[16] = biological target: PRKG2 (human) (UniProt Q13237)
[17] = biological target: MST1R (human) (UniProt Q04912)
[18] = biological target: MYLK2 (human) (UniProt Q9H1R3)
[19] = biological target: IKBKB (human) (UniProt O14920)
[20] = biological target: MUSK (human) (UniProt O15146)
[21] = biological target: DYRK1B (human) (UniProt Q9Y463)
DYRK1B (human), sequence (Q9Y463 whole entry, looked up): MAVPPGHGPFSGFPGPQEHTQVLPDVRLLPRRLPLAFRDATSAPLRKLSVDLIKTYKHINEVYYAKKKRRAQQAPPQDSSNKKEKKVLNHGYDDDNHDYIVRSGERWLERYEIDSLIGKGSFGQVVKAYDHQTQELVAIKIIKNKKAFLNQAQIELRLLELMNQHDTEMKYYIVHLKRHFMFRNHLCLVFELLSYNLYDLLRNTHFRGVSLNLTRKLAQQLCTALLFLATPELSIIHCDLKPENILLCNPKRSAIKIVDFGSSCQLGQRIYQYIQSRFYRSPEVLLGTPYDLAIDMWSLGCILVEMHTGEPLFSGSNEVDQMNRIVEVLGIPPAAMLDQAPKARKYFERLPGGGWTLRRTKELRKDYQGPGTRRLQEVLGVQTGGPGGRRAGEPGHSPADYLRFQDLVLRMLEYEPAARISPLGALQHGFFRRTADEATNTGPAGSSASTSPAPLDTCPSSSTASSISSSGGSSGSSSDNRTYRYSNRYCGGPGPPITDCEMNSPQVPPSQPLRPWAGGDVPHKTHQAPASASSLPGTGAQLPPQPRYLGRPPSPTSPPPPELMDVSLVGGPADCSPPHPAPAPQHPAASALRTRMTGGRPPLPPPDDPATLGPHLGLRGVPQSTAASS

[22] = biological target: MAP3K11 (human) (UniProt Q16584)
[23] = biological target: STK33 (human) (UniProt Q9BYT3)
STK33 (human), sequence (Q9BYT3 whole entry, looked up): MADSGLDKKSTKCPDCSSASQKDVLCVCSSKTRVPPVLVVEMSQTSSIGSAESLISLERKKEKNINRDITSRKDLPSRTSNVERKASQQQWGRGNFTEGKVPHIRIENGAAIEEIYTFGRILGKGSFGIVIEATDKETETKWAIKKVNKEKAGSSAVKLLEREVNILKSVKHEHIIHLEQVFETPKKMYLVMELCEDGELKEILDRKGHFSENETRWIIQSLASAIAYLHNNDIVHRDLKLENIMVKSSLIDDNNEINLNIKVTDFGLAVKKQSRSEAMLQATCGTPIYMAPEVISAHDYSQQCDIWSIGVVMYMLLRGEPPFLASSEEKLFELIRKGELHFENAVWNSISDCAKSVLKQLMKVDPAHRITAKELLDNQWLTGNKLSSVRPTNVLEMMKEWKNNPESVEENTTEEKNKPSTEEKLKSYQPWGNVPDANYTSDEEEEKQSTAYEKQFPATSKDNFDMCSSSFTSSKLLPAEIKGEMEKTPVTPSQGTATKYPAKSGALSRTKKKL

[24] = biological target: ADRBK1 (human) (UniProt P25098)
[25] = biological target: STK17A (human) (UniProt Q9UEE5)
[26] = biological target: TBK1 (human) (UniProt Q9UHD2)
TBK1 (human), sequence (Q9UHD2 whole entry, looked up): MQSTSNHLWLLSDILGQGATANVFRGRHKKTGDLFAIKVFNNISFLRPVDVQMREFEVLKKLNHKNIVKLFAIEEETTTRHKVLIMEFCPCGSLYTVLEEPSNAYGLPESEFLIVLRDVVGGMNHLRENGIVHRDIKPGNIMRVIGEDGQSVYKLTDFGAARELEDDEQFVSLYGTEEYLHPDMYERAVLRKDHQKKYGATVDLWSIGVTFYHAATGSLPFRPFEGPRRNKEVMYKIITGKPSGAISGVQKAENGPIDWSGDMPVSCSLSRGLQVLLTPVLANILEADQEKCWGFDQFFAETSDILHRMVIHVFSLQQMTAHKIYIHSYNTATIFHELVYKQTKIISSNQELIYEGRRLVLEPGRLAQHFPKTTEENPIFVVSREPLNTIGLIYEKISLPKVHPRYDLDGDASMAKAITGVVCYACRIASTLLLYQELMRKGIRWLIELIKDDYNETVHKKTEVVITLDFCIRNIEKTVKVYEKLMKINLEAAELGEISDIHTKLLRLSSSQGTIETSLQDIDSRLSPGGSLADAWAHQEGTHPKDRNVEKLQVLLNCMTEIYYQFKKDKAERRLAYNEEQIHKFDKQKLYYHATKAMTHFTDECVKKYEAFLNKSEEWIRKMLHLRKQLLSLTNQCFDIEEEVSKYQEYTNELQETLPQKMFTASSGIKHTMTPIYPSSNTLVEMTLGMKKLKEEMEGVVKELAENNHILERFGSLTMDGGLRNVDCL

[27] = biological target: RPS6KB1 (human) (UniProt P23443)
[28] = biological target: CDK3 CCNE1 (human) (UniProt Q00526+P24864)
CDK3 CCNE1 (human), sequence (P24864 whole entry, looked up): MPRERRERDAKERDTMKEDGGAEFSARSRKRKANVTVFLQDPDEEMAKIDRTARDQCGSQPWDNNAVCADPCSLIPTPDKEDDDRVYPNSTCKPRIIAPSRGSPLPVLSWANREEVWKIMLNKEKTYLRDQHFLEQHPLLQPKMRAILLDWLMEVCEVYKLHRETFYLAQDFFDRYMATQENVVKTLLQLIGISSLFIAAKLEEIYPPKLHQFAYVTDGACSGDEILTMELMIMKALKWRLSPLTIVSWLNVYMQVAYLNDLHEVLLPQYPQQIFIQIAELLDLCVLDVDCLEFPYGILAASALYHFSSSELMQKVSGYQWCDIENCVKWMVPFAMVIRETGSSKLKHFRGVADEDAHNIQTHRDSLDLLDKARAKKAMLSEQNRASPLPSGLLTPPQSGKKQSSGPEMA
CDK3 CCNE1 (human), sequence (Q00526 whole entry, looked up): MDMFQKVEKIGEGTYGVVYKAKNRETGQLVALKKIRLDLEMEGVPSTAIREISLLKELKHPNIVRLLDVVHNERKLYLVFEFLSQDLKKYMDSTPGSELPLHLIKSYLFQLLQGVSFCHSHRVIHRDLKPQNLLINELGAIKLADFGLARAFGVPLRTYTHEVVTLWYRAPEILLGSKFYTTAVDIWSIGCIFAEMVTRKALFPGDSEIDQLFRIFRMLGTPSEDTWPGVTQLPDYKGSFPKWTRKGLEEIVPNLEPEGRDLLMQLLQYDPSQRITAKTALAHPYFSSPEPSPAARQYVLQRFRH

[29] = biological target: PKN2 (human) (UniProt Q16513)
[30] = biological target: CLK3 (human) (UniProt P49761)
[31] = biological target: PRKCB2 (human) (UniProt P05771)
PRKCB2 (human), sequence (P05771 whole entry, looked up): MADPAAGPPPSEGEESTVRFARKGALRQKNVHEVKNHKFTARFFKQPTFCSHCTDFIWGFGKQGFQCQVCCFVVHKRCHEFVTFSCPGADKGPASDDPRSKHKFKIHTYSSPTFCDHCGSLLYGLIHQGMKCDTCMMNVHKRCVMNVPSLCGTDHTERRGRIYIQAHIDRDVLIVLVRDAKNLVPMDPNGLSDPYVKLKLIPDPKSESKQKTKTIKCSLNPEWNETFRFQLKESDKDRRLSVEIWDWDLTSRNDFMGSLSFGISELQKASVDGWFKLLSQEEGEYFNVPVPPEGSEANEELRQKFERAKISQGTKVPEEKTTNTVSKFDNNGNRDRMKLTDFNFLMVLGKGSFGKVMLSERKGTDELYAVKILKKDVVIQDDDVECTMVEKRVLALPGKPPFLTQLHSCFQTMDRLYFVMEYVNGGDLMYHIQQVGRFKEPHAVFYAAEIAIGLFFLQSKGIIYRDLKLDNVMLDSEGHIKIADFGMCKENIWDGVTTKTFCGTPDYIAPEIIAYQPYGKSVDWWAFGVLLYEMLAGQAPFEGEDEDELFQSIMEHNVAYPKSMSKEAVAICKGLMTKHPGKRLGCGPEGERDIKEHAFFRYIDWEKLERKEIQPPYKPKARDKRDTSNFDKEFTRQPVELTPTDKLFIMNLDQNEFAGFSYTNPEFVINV

[32] = biological target: PRKCI (human) (UniProt P41743)
[33] = biological target: EPHA3 (human) (UniProt P29320)
[34] = biological target: CSNK1E (human) (UniProt P49674)
[35] = biological target: CAMKK1 (human) (UniProt Q8N5S9)
[36] = biological target: IKBKE (human) (UniProt Q14164)
[37] = biological target: PAK4 (human) (UniProt O96013)
[38] = biological target: JAK3 JH1 JH2 (human) (UniProt P52333)
[39] = biological target: TYRO3 (human) (UniProt Q06418)
[40] = biological target: MAP3K5 (human) (UniProt Q99683)
[41] = biological target: MLTK (human) (UniProt Q9NYL2)
[42] = biological target: CSNK1A1 (human) (UniProt P48729)

RIPK2 (human), sequence (O43353 whole entry, looked up): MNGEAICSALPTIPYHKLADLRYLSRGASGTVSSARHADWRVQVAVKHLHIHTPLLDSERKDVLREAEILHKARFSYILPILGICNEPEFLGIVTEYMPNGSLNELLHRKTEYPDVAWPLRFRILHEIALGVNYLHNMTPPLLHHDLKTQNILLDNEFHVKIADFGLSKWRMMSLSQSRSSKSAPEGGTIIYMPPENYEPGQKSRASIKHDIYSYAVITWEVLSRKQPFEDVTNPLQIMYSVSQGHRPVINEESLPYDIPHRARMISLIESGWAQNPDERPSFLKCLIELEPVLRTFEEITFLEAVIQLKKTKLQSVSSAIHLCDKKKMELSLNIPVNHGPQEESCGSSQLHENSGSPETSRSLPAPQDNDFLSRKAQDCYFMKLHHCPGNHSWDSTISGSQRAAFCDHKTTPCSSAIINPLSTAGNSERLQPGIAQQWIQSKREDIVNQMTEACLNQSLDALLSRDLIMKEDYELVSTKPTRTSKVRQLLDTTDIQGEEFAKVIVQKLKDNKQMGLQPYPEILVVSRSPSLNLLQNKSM
CSNK2A1 (human), sequence (P68400 whole entry, looked up): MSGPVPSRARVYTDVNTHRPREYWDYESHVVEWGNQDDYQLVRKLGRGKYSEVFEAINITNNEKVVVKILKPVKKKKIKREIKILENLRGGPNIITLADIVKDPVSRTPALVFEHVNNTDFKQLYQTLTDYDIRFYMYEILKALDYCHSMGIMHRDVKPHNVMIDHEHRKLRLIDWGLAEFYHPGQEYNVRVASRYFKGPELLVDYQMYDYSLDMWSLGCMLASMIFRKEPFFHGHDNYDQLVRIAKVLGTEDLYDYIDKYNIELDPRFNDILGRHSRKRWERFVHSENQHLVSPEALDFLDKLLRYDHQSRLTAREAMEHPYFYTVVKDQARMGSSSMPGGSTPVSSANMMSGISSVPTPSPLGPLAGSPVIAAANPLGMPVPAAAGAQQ

## Nc1nc(Nc2ccc(S(N)(=O)=O)cc2)nn1C(=S)Nc1c(F)cccc1F
[1]
  residual activity: 19.7%
[2]
  residual activity: 14.2%
[3]
  residual activity: 76.6%
[4]
  residual activity: 104%
[5]
  residual activity: 17.1%
[6]
  residual activity: 0.17%
[7]
  residual activity: 24.8%
[8]
  residual activity: 19.4%
[9]
  residual activity: 46.2%
[10]
  residual activity: 0.625%
[11]
  residual activity: 92.2%
[12]
  residual activity: 105%
[13]
  residual activity: 2.13%
[14]
  residual activity: 98.3%
[15]
  residual activity: 91.1%
[16]
  residual activity: 61.4%
[17]
  residual activity: 56%
[18]
  residual activity: 66.6%
[19]
  residual activity: 49.3%
[20]
  residual activity: 8.02%
[21]
  residual activity: 14.1%
[22]
  residual activity: 1.33%
[23]
  residual activity: 35.1%
[24]
  residual activity: 97.8%
[25]
  residual activity: 11.1%
[26]
  residual activity: 10.3%
[27]
  residual activity: 30%
[28]
  residual activity: -0.912%
[29]
  residual activity: 19.1%
[30]
  residual activity: 4.64%
[31]
  residual activity: 74.5%
[32]
  residual activity: 78.9%
[33]
  residual activity: 85.9%
[34]
  residual activity: 91.8%
[35]
  residual activity: 36%
[36]
  residual activity: 67.2%
[37]
  residual activity: 47.6%
[38]
  residual activity: 5.21%
[39]
  residual activity: 29.8%
[40]
  residual activity: 1.12%
[41]
  residual activity: 49.1%

## CC(C)(C)c1nc2c3ccc(F)cc3c3c(=O)[nH]ccc3c2[nH]1
[1]
  residual activity: 34.6%
[2]
  residual activity: 96%
[3]
  residual activity: 82.9%
[4]
  residual activity: 109%
[5]
  residual activity: 76.9%
[6]
  residual activity: 74.9%
[7]
  residual activity: 52.3%
[8]
  residual activity: 94.9%
[9]
  residual activity: 65.6%
[10]
  residual activity: 91.3%
[11]
  residual activity: 11%
[12]
  residual activity: 39.1%
[13]
  residual activity: 66.2%
[15]
  residual activity: 99.6%
[16]
  residual activity: 14.3%
[17]
  residual activity: 103%
[42]
  residual activity: 94.6%
[18]
  residual activity: 67.2%
[19]
  residual activity: 52.1%
[20]
  residual activity: 81.7%
[21]
  residual activity: 88.2%
[22]
  residual activity: 57%
[23]
  residual activity: 53.8%
[24]
  residual activity: 98.5%
[25]
  residual activity: 6.42%
[26]
  residual activity: 24%
[27]
  residual activity: 74.1%
[28]
  residual activity: 92.1%
[29]
  residual activity: 67.1%
[30]
  residual activity: 50.5%
[31]
  residual activity: 90.6%
[32]
  residual activity: 96%
[33]
  residual activity: 89.2%
[34]
  residual activity: 85.6%
[35]
  residual activity: 81.4%
[36]
  residual activity: 25.4%
[37]
  residual activity: 105%
[38]
  residual activity: 0.445%
[39]
  residual activity: 90.3%
[40]
  residual activity: 84.4%
[41]
  residual activity: 78.1%
